Data reported in patent US6110933A, “Amino acid derivatives and their use as phospholipase A2 inhibitor” (Fujisawa Pharmaceutical Co., Ltd., priority 1994, dated 2000).

Key:
[1] = system: PLA2 group I; experiment: Test on the inhibitory effect against phospholipase A2 (PLA2); assay type: biochemical; details: 83 ng/ml; PLA2 group I from porcine pancreas; preincubated with enzyme at 37° C. for 30 minutes; 5 μM [14C]phosphatidylcholine, pH 7.4
Experimental: Test on the inhibitory effect against phospholipase A2 (PLA2)
The substrate, [^14 C]phosphatidylcholine (L-3-phosphatidylcholine, 1-stearyl-2-[1-^14 C]arachidonyl, was dried under N2 gas and suspended in deionized water with a probe sonicater. The standard reaction mixture in a total volume of 800 μl contained Tris-HCl buffer (10 mM, pH 7.4), CaCl2 (5 mM) and 10 ng/ml enzyme, PLA2 group I (from porcine pancreas, 700 units/mg, Boehringer Mannheim Yamanouchi Co., Ltd.). The reaction was started by addition of 5 μM [^14 C]phosphatidylcholine (L-3-phosphatidylcholine, 1-stearyl-2-[1-^14 C]arachidonyl to the enzyme solution. Following incubation at 37° C. for 30 minutes, the reaction was terminated by addition of 2 ml of Dole's reagent^1). To determine the release of ^14 C-arachidonic acid from the phospholipid substrate, free fatty acid was extracted by the method of Natori et al^2), and counted in 8 ml of Liquifluor (Du Pont, New England Nuclear). On the inhibition assay, inhibitor or vehicle was preincubated with enzyme at 37° C. for 30 minutes. Each sample was dissolved in methanol (1.25% final). All data are the average of at least duplicate determinations corrected for none enzymatic hydrolysis. Data were expressed as percent inhibition.

[2] = system: PLA2 group II; experiment: Inhibition of PLA2 group II; assay type: biochemical; details: no concentration or figure given

Percent inhibition [1]: 87.1%
SMILES: CCCCCCCCCCCCC[C@@H](CC(N)=O)OC(=O)[C@H](CCCC(=O)O)NC(=O)c1ccc(OC)cc1 [Example 9, (3S)-3-[(2S)-5-Carboxy-2-(p-methoxybenzoylamino)-pentanoyl]oxyhexadecanamide]
inhibition of PLA2 group II [2]: inhibited
